Paper PMC12316891, “A bottom-up approach to find lead compounds in expansive chemical spaces” (Communications Chemistry, 2025)

Tests used:
His6-BRD4 (BD1) = target: T1, His6-BRD4 (BD1) (Homo sapiens, UniProt O60885); assay: Surface plasmon resonance (SPR) single-dose screening; assay type: binding; design: key to SPR RESULT: Positive: compounds were considered as SPR hits also when their average signal was further than two standard deviations apart from the average signal of the blank samples (1% DMSO); conditions: for RUs at [10 µM]: SPR, compound 10 µM, 1% DMSO, n = 2, decimal comma
T1 construct: A pET28 plasmid containing residues 44–168 of BRD4 (BD1), a 6xHis tag, a TEV protease cleavage site; made in house; host or cells: E. coli Rosetta (D3)

BRD4 (BD1) [1] = target: T2, BRD4 (BD1) (Homo sapiens, UniProt O60885); conditions: advanced BRD4 (BD1) drug; cited from earlier work
T2 construct: A pET28 plasmid containing residues 44–168 of BRD4 (BD1), a 6xHis tag, a TEV protease cleavage site; 6xHis (N, cleaved yes); made in house; host or cells: E. coli Rosetta (D3)

BRD4 (BD1) [2] = target: T2, BRD4 (BD1); assay: Differential scanning fluorimetry (DSF) single-dose thermal shift screening; assay type: binding; conditions: DSF, compound 10 µM, BRD4 (BD1) 2 µM, n = 3, decimal comma; read-out: ΔTm ºC at [10 µM]
BRD4 (BD1) [3] = target: T2, BRD4 (BD1); assay: Competitive HTRF TR-FRET binding assay (displacement of acetylated histone H4 peptide); conditions: 16-point titration 0.1 nM to 10 µM, n = 2; Negative = curve could not be fitted to a sigmoidal curve; read-out: TR-FRET IC50

Row | RUs at [10 µM] (His6-BRD4 (BD1)) | ΔTm at 10 µM (BRD4 (BD1) [2]) [°C] | SPR RESULT (His6-BRD4 (BD1); single dose 10 µM, n = 2) | IC50 (BRD4 (BD1) [3]) [nM] | Structure (SMILES) | Ki (BRD4 (BD1) [1]) [nM]
1 | 116,86 ± 26,64 RUs | – | – | – | CCS(=O)(=O)Nc1ccc(Oc2ccc(F)cc2F)c(-c2cn(C)c(=O)c3[nH]ccc23)c1 [Compound 1, CCS(=O)(=O)NC1=CC(=C(C=C1)OC2=C(C=C(C=C2)F)F)C3=CN(C(=O)C4=C3C=CN4)C, reference compound] | 11
2 | 16,1 ± 0,61 RUs | 2.24 | Positive | 211 | CCCc1c(C(=O)N(C)C2CN(C(=O)c3cc(C)n[nH]3)C2)[nH]c(C)c1C(C)=O [Compound 96, CCCC1=C(NC(C)=C1C(=O)C)C(=O)N(C)C2CN(C2)C(=O)C3=CC(C)=NN3] | –
